The subject of experiment [1] is U937 human histiocytic leukemia cell line. The experiment can be described thus: Inhibition of TSQ induced necroptosis in U937 cells (CellTitre-Glo). The settings on record: Homo sapiens, U-937, TSQ cocktail (TNF, Smac mimetic, Q-VD-OPh), 48 hours, read-out: Inhibition of TSQ-induced necroptosis (IC50 cell-based assay). The gist of the method:
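Necroptosis was induced with TNF-Fc (100 ng/ml), Smac mimetic (500 nM) and Q-VD-OPh (10 μM) in 20000 U937 cells/well exposed to a 10-point, 3-fold compound series (top 36 μM, 0.3% DMSO). ATP luminescence read after 48 h; 4-parameter fit gave IC50. Parallel TSQ-free wells assessed compound toxicity.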

In a further experiment the target is human RIPK1 (Homo sapiens (Human), UniProt Q13546). The experiment can be described thus: KINOMEscan binding assay, human RIPK1. The settings on record: equilibrium dissociation constant. The gist of the method:
(§1)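 Kd values come from dose-response fits to the Hill equation (Hill slope −1, Levenberg–Marquardt least squares). Compound competed with bead-bound ligand for tagged kinase, and remaining kinase was measured by qPCR after elution. Dilution series: 11 points, 3-fold, 1% DMSO final, top 30,000 nM in most runs.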

In another experiment the target is human MLKL (full length) (Homo sapiens (Human), UniProt Q8NB16). The experiment can be described thus: KINOMEscan binding assay, human MLKL (full length). The settings on record: equilibrium dissociation constant. The gist of the method:
as §1

The target in the next experiment is human RIPK3 (Homo sapiens (Human), UniProt Q9Y572). The experiment can be described thus: KINOMEscan binding assay, human RIPK3. The settings on record: equilibrium dissociation constant. The gist of the method: as §1
Chain of human RIPK3 (Q9Y572 whole entry): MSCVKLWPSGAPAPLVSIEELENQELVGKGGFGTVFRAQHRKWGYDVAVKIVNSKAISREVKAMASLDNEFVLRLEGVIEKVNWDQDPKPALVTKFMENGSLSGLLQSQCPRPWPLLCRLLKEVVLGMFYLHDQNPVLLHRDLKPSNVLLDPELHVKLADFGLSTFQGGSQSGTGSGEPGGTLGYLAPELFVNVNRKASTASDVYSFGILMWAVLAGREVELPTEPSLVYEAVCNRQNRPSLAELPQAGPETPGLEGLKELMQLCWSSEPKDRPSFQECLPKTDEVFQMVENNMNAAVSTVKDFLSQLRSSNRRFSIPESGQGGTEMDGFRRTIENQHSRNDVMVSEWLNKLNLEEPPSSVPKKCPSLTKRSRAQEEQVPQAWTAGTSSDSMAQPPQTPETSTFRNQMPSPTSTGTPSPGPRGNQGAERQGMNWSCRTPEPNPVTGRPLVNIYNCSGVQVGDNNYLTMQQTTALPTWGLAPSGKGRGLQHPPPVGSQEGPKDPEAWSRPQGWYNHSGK
A further experiment concerns U937 cells. Nature of the experiment: Counter screen: U937 cell viability without TSQ cocktail (off-target effect). Also on record: species or system human. As to conditions: Homo sapiens, U-937, compound without TSQ cocktail, read-out: Off-target effect (IC50 cell-based assay). The procedure, abridged:
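Off-target viability counter screen: compounds titrated 36 μM down 1:3 over 10 points (0.3% DMSO) on 20,000 U937 cells/well, no TNF/Smac mimetic/Q-VD-OPh added, 48 h incubation. ATP-based CellTiter-Glo luminescence, four-parameter logistic IC50.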
A general note: A counterscreen serves to expose hits that act by an unwanted route or on another target.

Each structure is given as a SMILES string.

Chain of human MLKL (full length) (Q8NB16 whole entry): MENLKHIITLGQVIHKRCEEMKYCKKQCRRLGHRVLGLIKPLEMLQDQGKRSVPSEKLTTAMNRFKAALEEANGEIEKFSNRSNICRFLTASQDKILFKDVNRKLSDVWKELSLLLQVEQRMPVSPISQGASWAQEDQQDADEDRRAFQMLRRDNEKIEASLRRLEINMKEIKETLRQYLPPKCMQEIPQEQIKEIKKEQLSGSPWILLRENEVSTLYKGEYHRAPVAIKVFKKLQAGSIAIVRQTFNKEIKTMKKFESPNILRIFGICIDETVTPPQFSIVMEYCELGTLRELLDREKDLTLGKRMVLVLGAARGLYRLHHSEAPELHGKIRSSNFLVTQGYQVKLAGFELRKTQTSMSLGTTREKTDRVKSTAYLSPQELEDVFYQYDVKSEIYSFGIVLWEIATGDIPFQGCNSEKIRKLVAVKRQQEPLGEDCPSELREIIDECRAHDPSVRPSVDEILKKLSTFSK
Chain of human RIPK1 (Q13546 whole entry): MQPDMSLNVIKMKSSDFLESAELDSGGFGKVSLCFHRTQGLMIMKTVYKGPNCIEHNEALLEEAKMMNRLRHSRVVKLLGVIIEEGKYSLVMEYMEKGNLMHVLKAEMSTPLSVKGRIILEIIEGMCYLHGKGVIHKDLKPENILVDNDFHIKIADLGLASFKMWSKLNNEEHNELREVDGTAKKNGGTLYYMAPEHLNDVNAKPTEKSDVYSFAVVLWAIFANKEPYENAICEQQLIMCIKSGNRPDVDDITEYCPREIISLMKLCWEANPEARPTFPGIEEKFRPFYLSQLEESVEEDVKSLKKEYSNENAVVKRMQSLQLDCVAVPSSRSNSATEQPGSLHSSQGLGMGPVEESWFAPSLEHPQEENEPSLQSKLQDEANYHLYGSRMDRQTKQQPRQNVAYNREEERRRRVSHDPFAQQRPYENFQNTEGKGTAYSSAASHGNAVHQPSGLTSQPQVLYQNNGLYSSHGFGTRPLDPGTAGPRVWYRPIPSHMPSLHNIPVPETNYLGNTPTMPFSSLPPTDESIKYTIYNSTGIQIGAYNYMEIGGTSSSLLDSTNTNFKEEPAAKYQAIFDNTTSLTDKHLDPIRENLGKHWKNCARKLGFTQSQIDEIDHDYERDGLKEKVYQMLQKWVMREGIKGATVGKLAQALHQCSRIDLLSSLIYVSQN

For `CC(C)N1CC(n2cc(-c3cnc(N)c4c(-c5ccc(NS(=O)(=O)C(F)F)c(O[C@@H](C)c6ccc(F)cc6)c5)nn(C)c34)cn2)C1` [Compound 76, (S)-N-(4-(4-amino-7-(1-(1-isopropylazetidin-3-yl)-1H-pyrazol-4-yl)-1-methyl-1H-pyrazolo[4,3-c]pyridin-3-yl)-2-(1-(4-fluorophenyl)ethoxy)phenyl)-1,1-difluoromethanesulfonamide], the IC50 (as a rule, the midpoint of a concentration-inhibition curve) is below 0.01 µM in experiment [1] and above 10 µM with U937 cells. For the same compound, the Kd (commonly the concentration at which binding is half-saturated) was above 10 µM on human RIPK1, below 0.001 µM on human MLKL (full length) and above 10 µM on human RIPK3.
Regarding `C[C@H](Oc1cc(-c2nn(C)c3c(-c4cnn(C5CN(CC(F)(F)F)C5)c4)cnc(N)c23)ccc1NS(=O)(=O)C(F)F)c1ccc(F)cc1` [Compound 77, (S)-N-(4-(4-amino-1-methyl-7-(1-(1-(2,2,2-trifluoroethyl)azetidin-3-yl)-1H-pyrazol-4-yl)-1H-pyrazolo[4,3-c]pyridin-3-yl)-2-(1-(4-fluorophenyl)ethoxy)phenyl)-1,1-difluoromethanesulfonamide], the values for the IC50 (in experiment [1]; in the experiment with U937 cells) were below 0.01 µM and above 10 µM, respectively. Besides, the Kd at human RIPK1 was above 10 µM; at human MLKL (full length), below 0.001 µM; on human RIPK3, above 10 µM.
Take `C[C@H](Oc1cc(-c2nn(C)c3c(-c4cnn(C5CC6(CNC6)C5)c4)cnc(N)c23)ccc1NS(=O)(=O)C(F)F)c1ccc(F)cc1` [Compound 78, (S)-N-(4-(7-(1-(2-azaspiro[3.3]heptan-6-yl)-1H-pyrazol-4-yl)-4-amino-1-methyl-1H-pyrazolo[4,3-c]pyridin-3-yl)-2-(1-(4-fluorophenyl)ethoxy)phenyl)-1,1-difluoromethanesulfonamide]: the IC50 was 0.01 to 1 µM in experiment [1] and above 10 µM with U937 cells. Further, the Kd was above 10 µM on human RIPK1, below 0.001 µM at human MLKL (full length) and above 10 µM on human RIPK3.
Turning to `CNCCn1cc(-c2cnc(N)c3c(-c4ccc(NS(=O)(=O)C(F)F)c(O[C@@H](C)c5ccc(F)cc5)c4)nn(C)c23)cn1` [Compound 82, (S)-N-(4-(4-amino-1-methyl-7-(1-(2-(methylamino)ethyl)-1H-pyrazol-4-yl)-1H-pyrazolo[4,3-c]pyridin-3-yl)-2-(1-(4-fluorophenyl)ethoxy)phenyl)-1,1-difluoromethanesulfonamide], the results for the IC50 (in experiment [1]; in the experiment with U937 cells) were 0.01 to 1 µM and above 10 µM, respectively. Also, the figures for the Kd at human RIPK1, at human MLKL (full length) and on human RIPK3 were above 10 µM, below 0.001 µM and above 10 µM, respectively.
Take `C[C@H](Oc1cc(-c2nn(C)c3c(-c4cc(C#N)n(C)c4)cnc(N)c23)ccc1NS(=O)(=O)C(F)F)c1ccc(F)cc1` [Compound 83, (S)-N-(4-(4-amino-7-(5-cyano-1-methyl-1H-pyrrol-3-yl)-1-methyl-1H-pyrazolo[4,3-c]pyridin-3-yl)-2-(1-(4-fluorophenyl)ethoxy)phenyl)-1,1-difluoromethanesulfonamide]: the IC50 in experiment [1] is 0.01 to 1 µM; in the experiment on U937 cells it was above 10 µM. Also, the Kd was above 10 µM at human RIPK1, 0.001 to 0.1 µM on human MLKL (full length) and above 10 µM on human RIPK3.
On to `C[C@H](Oc1cc(-c2nn(C)c3c(-c4cccc(Cl)c4)cnc(N)c23)ccc1NS(=O)(=O)C(F)F)c1ccc(F)cc1` [Compound 84, (S)-N-(4-(4-amino-7-(3-chlorophenyl)-1-methyl-1H-pyrazolo[4,3-c]pyridin-3-yl)-2-(1-(4-fluorophenyl)ethoxy)phenyl)-1,1-difluoromethanesulfonamide], for which the IC50 is 1 to 10 µM in experiment [1] and above 10 µM in the experiment on U937 cells. The Kd on human RIPK1 is above 10 µM; at human MLKL (full length), 0.001 to 0.1 µM; at human RIPK3 it was above 10 µM.
With `C[C@H](Oc1cc(-c2nn(C)c3c(-c4ccccc4Cl)cnc(N)c23)ccc1NS(=O)(=O)C(F)F)c1ccc(F)cc1` [Compound 85, (S)-N-(4-(4-amino-7-(2-chlorophenyl)-1-methyl-1H-pyrazolo[4,3-c]pyridin-3-yl)-2-(1-(4-fluorophenyl)ethoxy)phenyl)-1,1-difluoromethanesulfonamide], the IC50 in experiment [1] was 1 to 10 µM; with U937 cells, above 10 µM. In addition, the Kd was above 10 µM on human RIPK1, 0.001 to 0.1 µM at human MLKL (full length) and above 10 µM at human RIPK3.
Turning to `C[C@H](Oc1cc(-c2nn(C)c3c(-c4ccccc4)cnc(N)c23)ccc1NS(=O)(=O)C(F)F)c1ccc(F)cc1` [Compound 86, (S)-N-(4-(4-amino-1-methyl-7-phenyl-1H-pyrazolo[4,3-c]pyridin-3-yl)-2-(1-(4-fluorophenyl)ethoxy)phenyl)-1,1-difluoromethanesulfonamide], the IC50 in experiment [1] is 0.01 to 1 µM; in the experiment with U937 cells it was above 10 µM. Also, the Kd on human RIPK1 was above 10 µM; at human MLKL (full length) it was 0.001 to 0.1 µM; on human RIPK3, above 10 µM.
On to `C[C@H](Oc1cc(-c2nn(C)c3c(-c4ccc(Cl)cc4)cnc(N)c23)ccc1NS(=O)(=O)C(F)F)c1ccc(F)cc1` [Compound 87, (S)-N-(4-(4-amino-7-(4-chlorophenyl)-1-methyl-1H-pyrazolo[4,3-c]pyridin-3-yl)-2-(1-(4-fluorophenyl)ethoxy)phenyl)-1,1-difluoromethanesulfonamide], for which the IC50 in experiment [1] was 1 to 10 µM; with U937 cells it was above 10 µM. For the same compound, the figures for the Kd on human RIPK1, on human MLKL (full length) and on human RIPK3 were above 10 µM, 0.001 to 0.1 µM and above 10 µM, respectively.
On to `C[C@H](Oc1cc(-c2nn(C)c3c(-c4cnn(CC5CCCN5)c4)cnc(N)c23)ccc1NS(=O)(=O)C(F)F)c1ccc(F)cc1` (stereo partly drawn) [Compound 88, N-(4-(4-amino-1-methyl-7-(1-(pyrrolidin-2-ylmethyl)-1H-pyrazol-4-yl)-1H-pyrazolo[4,3-c]pyridin-3-yl)-2-((S)-1-(4-fluorophenyl)ethoxy)phenyl)-1,1-difluoromethanesulfonamide], for which the IC50 was 0.01 to 1 µM in experiment [1] and above 10 µM in the experiment with U937 cells. Besides, the figures for the Kd at human RIPK1, on human MLKL (full length) and at human RIPK3 were above 10 µM, below 0.001 µM and above 10 µM, respectively.
Regarding `C[C@H](Oc1cc(-c2nn(C)c3c(-c4cnn(C5(CN)CC5)c4)cnc(N)c23)ccc1NS(=O)(=O)C(F)F)c1ccc(F)cc1` [Compound 89, (S)—N-(4-(4-amino-7-(1-(1-(aminomethyl)cyclopropyl)-1H-pyrazol-4-yl)-1-methyl-1H-pyrazolo[4,3-c]pyridin-3-yl)-2-(1-(4-fluorophenyl)ethoxy)phenyl)-1,1-difluoromethanesulfonamide], the figures for the IC50 (in experiment [1]; in the experiment on U937 cells) were 0.01 to 1 µM and above 10 µM, respectively. Besides, the Kd on human RIPK1 is above 10 µM; on human MLKL (full length) it was below 0.001 µM; on human RIPK3, above 10 µM.
`C[C@H](Oc1cc(-c2nn(C)c3c(-c4cnn(C5CN(C)C5)c4)cnc(N)c23)ccc1NS(=O)(=O)C(F)F)c1ccc(F)cc1` [Compound 92, (S)-N-(4-(4-amino-1-methyl-7-(1-(1-methylazetidin-3-yl)-1H-pyrazol-4-yl)-1H-pyrazolo[4,3-c]pyridin-3-yl)-2-(1-(4-fluorophenyl)ethoxy)phenyl)-1,1-difluoromethanesulfonamide]: the IC50 was 0.01 to 1 µM in experiment [1] and above 10 µM in the experiment on U937 cells. Further, the Kd at human RIPK1 was above 10 µM; on human MLKL (full length), below 0.001 µM; at human RIPK3 it was above 10 µM.
`C[C@H](Oc1cc(-c2nn(C)c3c(-c4cnn(C5CCN(C)C5)c4)cnc(N)c23)ccc1NS(=O)(=O)C(F)F)c1ccc(F)cc1` (stereo partly drawn) [Compound 93, N-(4-(4-amino-1-methyl-7-(1-(1-methylpyrrolidin-3-yl)-1H-pyrazol-4-yl)-1H-pyrazolo[4,3-c]pyridin-3-yl)-2-((S)-1-(4-fluorophenyl)ethoxy)phenyl)-1,1-difluoromethanesulfonamide]: the IC50 in experiment [1] was 0.01 to 1 µM; with U937 cells, above 10 µM. Further, the Kd was above 10 µM on human RIPK1, below 0.001 µM on human MLKL (full length) and above 10 µM on human RIPK3.
On to `C[C@H](Oc1cc(-c2nn(C)c3c(-c4cnn(C5CNC5)c4)cnc(N)c23)ccc1NS(=O)(=O)C(F)F)c1ccc(F)cc1` [Compound 94, (S)-N-(4-(4-amino-7-(1-(azetidin-3-yl)-1H-pyrazol-4-yl)-1-methyl-1H-pyrazolo[4,3-c]pyridin-3-yl)-2-(1-(4-fluorophenyl)ethoxy)phenyl)-1,1-difluoromethanesulfonamide], for which the IC50 was 0.01 to 1 µM in experiment [1] and above 10 µM in the experiment on U937 cells. The Kd at human RIPK1 is above 10 µM; on human MLKL (full length), below 0.001 µM; on human RIPK3, above 10 µM.
Turning to `CC1CNCC(n2cc(-c3cnc(N)c4c(-c5ccc(NS(=O)(=O)C(F)F)c(O[C@@H](C)c6ccc(F)cc6)c5)nn(C)c34)cn2)C1` (stereo partly drawn) [Compound 95, N-(4-(4-amino-1-methyl-7-(1-(5-methylpiperidin-3-yl)-1H-pyrazol-4-yl)-1H-pyrazolo[4,3-c]pyridin-3-yl)-2-((S)-1-(4-fluorophenyl)ethoxy)phenyl)-1,1-difluoromethanesulfonamide], the IC50 in experiment [1] is 0.01 to 1 µM; in the experiment with U937 cells, above 10 µM. The Kd on human RIPK1 is above 10 µM; at human MLKL (full length), 0.001 to 0.1 µM; on human RIPK3, above 10 µM.

(Values after patent US20250059188A1, “ARYLSULPHONAMIDE COMPOUNDS” (Anaxis Pharma Pty Ltd, priority 2021, published 2025).)
